43 molecules from patent US20250388560A1, “AROMATIC COMPOUND AND USE THEREOF” (HITGEN INC., priority 2023, published 2025) can be followed below.

Molecules are shown by their SMILES.

This test has as its target TRIM21 protein (Homo sapiens (Human), UniProt P19474). The test is described as follows: SPR binding assay (Biacore 8K) of compounds to immobilised TRIM21 protein. The settings on record: 25° C., steady state affinity model (1:1 binding model), read-out: TRIM21 Kd Test Value. The method, then:
The protein fixation buffer, the running buffer A and the running buffer B were prepared and filtered through a […] membrane prior to use.
A surface of a CM5 chip was washed for three times with 50 mM NaOH at a flow rate of 60.0 μL/min and 60 seconds per wash. […] The CM5 chip was activated for 420 s at a flow rate of 6.0 μL/min. A strep tactin XT fixation buffer fixation built in the twin strep tag capture kit was used to prepare a 50.0 µg/mL Strep tactin XT. The Strep tactin XT was injected at a flow rate of 5.0 μL/min for 600 s. After injection of […], 1 M ethanolamine from the amine coupling kit was injected at a flow rate of 6.0 μL/min for 7 min to close the surface of the CM5 chip.
The running buffer A was used as the protein fixation buffer. The protein fixation buffer and the TRIM21 protein were mixed to prepare a 40.0 µg/mL mixed solution. The 40.0 µg/mL mixed solution was injected at flow rate of 5.0 μL/min for 600 s, and the TRIM21 protein was captured on the CM5 chip through Strep tactin XT.
A compound to be tested was diluted with 100% DMSO to a concentration that was 100 times a required final concentration and mixed evenly, and […] of such solution was added into […] of the running buffer A, followed by centrifugation at 15,000 rpm for 5 min to obtain an X compound solution contained with 1% DMSO.
The X compound was subjected to 8-point, 2-fold serial dilutions with the running buffer B, starting from an initial concentration. The diluted X compound was transferred into the 96-well plate for sample injection.
A Biacore 8K Control software was started, and tests were run in a 25° C. environment. During program running, the running buffer B was used at a flow rate of 30.0 μL/min. The running buffer B was injected for three times to complete balance. […] An injection needle was cleaned with 50% DMSO after each injection.
A response value of binding of the X compound and the TRIM21 protein was corrected after deducting a reference channel and 0 concentration. A binding affinity Kd was matched by a steady state affinity model (1:1 binding model) through the Biacore Insight Evaluation Software.
The binding affinities between X compounds of the embodiments of the present disclosure were tested according the above method.

Chain of TRIM21 protein (P19474 whole entry, species assumed): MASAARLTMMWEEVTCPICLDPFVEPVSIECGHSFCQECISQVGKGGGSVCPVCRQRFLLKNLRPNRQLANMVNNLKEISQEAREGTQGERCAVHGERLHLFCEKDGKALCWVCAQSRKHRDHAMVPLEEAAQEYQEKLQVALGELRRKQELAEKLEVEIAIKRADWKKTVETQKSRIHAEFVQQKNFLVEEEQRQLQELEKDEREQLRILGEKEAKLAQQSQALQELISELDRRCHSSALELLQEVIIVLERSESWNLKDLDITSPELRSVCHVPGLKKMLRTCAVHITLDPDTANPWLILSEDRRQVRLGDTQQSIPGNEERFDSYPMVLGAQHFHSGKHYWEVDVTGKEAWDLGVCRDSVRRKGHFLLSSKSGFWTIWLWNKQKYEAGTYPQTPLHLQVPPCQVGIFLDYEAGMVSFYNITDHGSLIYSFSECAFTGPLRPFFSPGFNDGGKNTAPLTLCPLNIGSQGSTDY

In general, Kd refers to a measure of binding affinity in units of concentration. Consider `CNC(=O)c1ccc(-c2ccccc2SC)cc1S(C)(=O)=O` [Compound 1], for which the equilibrium dissociation constant (Kd) lay in the range of 100 to 1000 nM. The figure for `CSc1ccccc1-c1ccc(C(=O)N(C)CC2CCCCC2)c(S(C)(=O)=O)c1` [Compound 2] is 100 to 1000 nM. The figure for `CSc1ccccc1-c1ccc(C(=O)N(C)Cc2ccc3c(c2)OCO3)c(S(C)(=O)=O)c1` [Compound 3] is 10 to 100 nM; for `CSc1ccccc1-c1ccc(C(=O)N(C)Cc2ccsc2)c(S(C)(=O)=O)c1` [Compound 4] it is 100 to 1000 nM; for `CSc1ccccc1-c1ccc(C(=O)N(C)CC2CCCCC2(F)F)c(S(C)(=O)=O)c1` (stereo not shown) [Compound 5] it is 1000 to 10000 nM. Then `CSc1ccccc1-c1ccc(C(=O)N(C)CC2(F)CCCCC2)c(S(C)(=O)=O)c1` [Compound 6], with 100 to 1000 nM. Take `CSc1ccccc1-c1ccc(C(=O)N(C)Cc2cnoc2)c(S(C)(=O)=O)c1` [Compound 7]: the Kd fell in the range of 100 to 1000 nM. Then `CCc1ccccc1CN(C)C(=O)c1ccc(-c2ccccc2SC)cc1S(C)(=O)=O` [Compound 8], with 100 to 1000 nM; and `CSc1ccccc1-c1ccc(C(=O)N(C)C2CCCCC2)c(S(C)(=O)=O)c1` [Compound 9], with 1000 to 10000 nM; and `CCC(CC)CN(C)C(=O)c1ccc(-c2ccccc2SC)cc1S(C)(=O)=O` [Compound 10], with 100 to 1000 nM. The figure for `CSc1ccccc1-c1ccc(C(=O)N(C)Cc2cc[nH]c2)c(S(C)(=O)=O)c1` [Compound 11] is 10 to 100 nM; for `CSc1ccccc1-c1ccc(C(=O)N(C)c2ccccc2)c(S(C)(=O)=O)c1` [Compound 12] it is 1000 to 10000 nM. Regarding `CSc1ccccc1-c1ccc(C(=O)N(C)CC2CN(C(C)=O)C2)c(S(C)(=O)=O)c1` [Compound 13], the Kd fell in the range of 100 to 1000 nM. `CSc1ccccc1-c1ccc(C(=O)N(C)[C@H](C)C2CCC2)c(S(C)(=O)=O)c1` [Compound 14]: the equilibrium dissociation constant (Kd) was in the range of 100 to 1000 nM. For `CSc1ccccc1-c1ccc(C(=O)N(C)CC2CCOC2)c(S(C)(=O)=O)c1` (stereo not shown) [Compound 15], the equilibrium dissociation constant (Kd) is 100 to 1000 nM.

In the case of `COc1cc(CN(C)C(=O)c2ccc(-c3ccccc3SC)cc2S(C)(=O)=O)ccn1` [Compound 16], the dissociation constant Kd is 100 to 1000 nM. The figure for `CSc1ccccc1-c1ccc(C(=O)N(C)Cc2cc[nH]c(=O)c2)c(S(C)(=O)=O)c1` [Compound 18] is 1000 to 10000 nM; for `CSc1ccccc1-c1ccc(C(=O)N(C)[C@H](C)C2CC2)c(S(C)(=O)=O)c1` [Compound 19] it is 100 to 1000 nM; for `CSc1ccccc1-c1ccc(C(=O)N(C)[C@H](C)C2CCCC2)c(S(C)(=O)=O)c1` [Compound 20] it is 100 to 1000 nM. The figure for `CSc1ccccc1-c1ccc(C(=O)N(C)CC2CCOCC2)c(S(C)(=O)=O)c1` [Compound 23] is 10 to 100 nM; for `COc1ccccc1-c1ccc(C(=O)N(C)[C@H](C)C2CCC2)c(S(C)(=O)=O)c1` [Compound 24] it is 1000 to 10000 nM.

`COc1ccccc1-c1ccc(C(=O)N(C)CC2CCOC2)c(S(C)(=O)=O)c1` (stereo not shown) [Compound 25]: the dissociation constant Kd lay in the range of 1000 to 10000 nM. The figure for `COc1ccccc1-c1ccc(C(=O)N(C)CC2CN(C(C)=O)C2)c(S(C)(=O)=O)c1` [Compound 26] is above 10000 nM; for `COc1cc(CN(C)C(=O)c2ccc(-c3ccccc3OC)cc2S(C)(=O)=O)ccn1` [Compound 27] it is 10 to 100 nM. The figure for `COc1ccccc1-c1ccc(C(=O)N(C)Cc2cc[nH]c(=O)c2)c(S(C)(=O)=O)c1` [Compound 28] is 10 to 100 nM; for `COc1ccccc1-c1ccc(C(=O)N(C)Cc2cc[nH]c2)c(S(C)(=O)=O)c1` [Compound 29] it is 10 to 100 nM.

`COc1ccccc1-c1ccc(C(=O)N(C)CC2COC2)c(S(C)(=O)=O)c1` [Compound 30]: the equilibrium dissociation constant (Kd) fell in the range of 1000 to 10000 nM. Then `COc1ccccc1-c1ccc(C(=O)N(C)C(C)C2COC2)c(S(C)(=O)=O)c1` (stereo not shown) [Compound 31], with 1000 to 10000 nM; and `COc1ccccc1-c1ccc(C(=O)N(C)[C@H](C)C2CC2)c(S(C)(=O)=O)c1` [Compound 32], with 1000 to 10000 nM. The figure for `COc1ccccc1-c1ccc(C(=O)N(C)[C@H](C)C2CCCC2)c(S(C)(=O)=O)c1` [Compound 33] is 1000 to 10000 nM; for `COc1ccccc1-c1ccc(C(=O)N(C)CC2CCOCC2)c(S(C)(=O)=O)c1` [Compound 34] it is 100 to 1000 nM. Then `COc1ccccc1-c1ccc(C(=O)N(C)CC2CCC(O)CC2)c(S(C)(=O)=O)c1` (stereo not shown) [Compound 35], with 100 to 1000 nM; and `COc1ccccc1-c1ccc(C(=O)N(C)CC2CCCCC2)c(S(C)(=O)=O)c1` [Compound 37], with 100 to 1000 nM. `Cc1ccccc1-c1ccc(C(=O)N(C)CC2CCCCC2)c(S(C)(=O)=O)c1` [Compound 38]: the Kd was 100 to 1000 nM. The figure for `CN(CC1CCCCC1)C(=O)c1ccc(-c2ccccc2C(F)(F)F)cc1S(C)(=O)=O` [Compound 39] is 100 to 1000 nM; for `CN(CC1CCCCC1)C(=O)c1ccc(-c2ccc(F)cc2C2CC2)cc1S(C)(=O)=O` [Compound 41] it is 10 to 100 nM; for `CN(CC1CCCCC1)C(=O)c1ccc(-c2ccccc2C(C)(C)O)cc1S(C)(=O)=O` [Compound 42] it is 100 to 1000 nM. The figure for `COc1cnccc1-c1ccc(C(=O)N(C)CC2CCCCC2)c(S(C)(=O)=O)c1` [Compound 43] is 1000 to 10000 nM. Then `CN(CC1CCCCC1)C(=O)c1ccc(-c2ccccc2F)cc1S(C)(=O)=O` [Compound 45], with 1000 to 10000 nM; and `CC(C)c1ccccc1-c1ccc(C(=O)N(C)CC2CCCCC2)c(S(C)(=O)=O)c1` [Compound 46], with 100 to 1000 nM; and `CN(CC1CCCCC1)C(=O)c1ccc(-c2cccc3ccoc23)cc1S(C)(=O)=O` [Compound 47], with above 10000 nM. As for `COc1cc(F)ccc1-c1ccc(C(=O)N(C)CC2CCCCC2)c(S(C)(=O)=O)c1` [Compound 52], the Kd was in the range of 1 to 10 nM.

For `CN(CC1CCCCC1)C(=O)c1ccc(-c2ccc(F)cc2)cc1S(C)(=O)=O` [Compound 54], the dissociation constant Kd was in the range of 1000 to 10000 nM.
